These are literature values, as cited in patent publication US5516921A, “Thiono-lactone inhibitors of protein trafficking and uses therefor” (Ariad Pharmaceuticals, Inc., priority 1994, dated 1996).

The conditions of series [1]: in vivo.

As to `C[C@H]1CCC/C=C/[C@@H]2C[C@H](O)C[C@H]2[C@H](O)/C=C/C(=O)O1` [BFA, Brefeldin A], the “time at which release of β-COP from the Golgi is complete” value in the series on β-COP (complete release after BFA treatment) was 1 to 2 min. Further, in the series on β-COP (onset of release after BFA treatment), the “time at which release of β-COP from the Golgi occurs after treatment” value was at most 20 s. In series [1], the biological half-life result is “short”.
